Experimental data reported in US20240294519A1, “PYRROLO[2,3-b]PYRIDINE PGDH INHIBITORS AND METHODS OF MAKING AND USING” (EPIRIUM BIO INC., priority 2021, published 2024).
Values joined by “and” are separate entries in the source; they are usually repeats but may differ in a detail not shown here. Identical values can stand only once.

What was measured:
[1] = target: T1, 15-PGDH (Homo sapiens, UniProt P15428); assay: A549 cell based assay: PGE2 in supernatant after IL-1β (HTRF); details: A549 cells, fold induction of PGE2, IL-1β plus test article versus IL-1β only
T1 construct: 15-PGDH is highly expressed in resting human lung adenocarcinoma cells (A549); endogenous in cells; host or cells: A549
T1 sequence (P15428 1-266): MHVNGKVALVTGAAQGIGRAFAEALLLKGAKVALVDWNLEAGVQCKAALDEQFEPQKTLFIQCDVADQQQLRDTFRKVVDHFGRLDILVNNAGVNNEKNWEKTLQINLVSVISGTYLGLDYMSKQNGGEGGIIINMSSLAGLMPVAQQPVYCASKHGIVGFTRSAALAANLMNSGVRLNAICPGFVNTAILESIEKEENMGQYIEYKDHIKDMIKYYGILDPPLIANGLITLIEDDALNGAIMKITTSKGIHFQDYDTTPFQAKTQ
Method: Cell Based Assay: 15-PGDH is highly expressed in resting human lung adenocarcinoma cells (A549) (Tong et al., 2006), and this cell line was used to assess 15-PGDH inhibition by MF-300Na in vitro.
In this assay, A549 cells are treated with interleukin (IL) 1β, which induces the expression of cycloxygenase-2 and the synthesis of PGE2 (Tong et al., 2006). In the studies evaluating test articles, thirty thousand A549 cells were seeded in 100 μL F12K completed media and incubated for 24 hours at 37° C. with 5% CO2 before being serum-starved for 24 hours. On the day of the experiment, buffer was changed to complete medium, and cells were incubated for 30 minutes with compounds prior to the addition of IL-1β (final concentration of 0.1-0.25 ng/mL) overnight at 37° C. with 5% CO2. Each concentration was run in triplicate. […] The PGE2 in the supernatant was detected and quantified using a Cisbio HTRF technology (Homogeneous Time-Resolved Fluorescence) kit (62P2APEG-62P2APEH) according to the manufacturer's recommendations, quantifying the fold induction of PGE2 of cells treated with IL-1β plus test article, versus treatment with IL-1β only.

[2] = target: T2, 15-PGDH/HPGD (Homo sapiens, UniProt P15428); assay: hPGDH inhibitor screening biochemical assay; details: 10 nM enzyme, 15 μM PGE2, 0.25 mM NAD, fluorescence ex/em 340/485 nm
T2 construct: purchased R&D System 5660-DH
T2 sequence (P15428 1-266): T1 sequence (P15428 1-266)
Method: A hydroxyprostaglandin dehydrogenase inhibition screening biochemical assay can be performed to assess the synthesized inhibitors provided herein. Provided herein is an exemplary biochemical assay for hPGDH inhibitor screening.
The in vitro biochemical assay can be performed in white, 384 plates in total 20 μl reaction volume consisting of 10 nM of 15-PGDH/HPGD (R&D System #5660-DH), 15 μM Prostaglandin E2 (Sigma, C8 t #P5640-10 MG) and 0.25 mM β-Nicotinamide adenine dinucleotide sodium salt (Sigma, C8 t #N0632-5G) made in reaction buffer (50 mM Tris-HCl, pH 7.5, 0.01% Tween 20) at 10-point dose response curve for test/tool compounds. Briefly, 5 μl (4×) of compounds solution and 5 μl (final concentration, 10 nM) of enzyme solution is added to white 384 well plates and incubated for 10 mins at 37° C. 5 μl (4×) of […] and 5 μl (4×) of β-Nicotinamide adenine dinucleotide sodium salt is added to the wells and incubated for 10 mins at room temperature. Fluorescence is recorded at ex/em=340 nm/485 nm. The percentage (%) inhibition of enzyme activity was determined relative to positive control (1% DMSO) and IC50 was calculated using GraphPad prism software (four parameter-variable slope equation).

Structure (SMILES)	PGE2 - HTRF over IL-β induction at 0.001 μM [1]	PGE2 - HTRF over IL-β induction at 0.01 μM [1]	PGE2 - HTRF over IL-β induction at 0.1 μM [1]	PGE2 - HTRF over IL-β induction at 1 μM [1]	IC50 [2]
O=C(c1cnc2c(ccn2-c2ccc(N3CCOC3=O)nc2)c1)N1CCCC(C(F)(F)F)C1 (centres unmarked) [Compound B-114]	2.23	5.78	7.25	11.1	< 100 nM
CCC1CCCN(C(=O)c2cnc3c(ccn3-c3ccc(N4CCOC4=O)nc3)c2)C1 (centres unmarked) [Compound B-113]	6.05	3.06	8.74	10.7	< 100 nM
O=C(c1cnc2c(ccn2-c2ccc(N3CCOC3=O)nc2)c1)N1CCCC(F)(F)C1 [Compound B-115]	4.36	3.07	4.92	5.24	–
COC(=O)Nc1cncc(-n2ccc3cc(C(=O)N4CCCC(C(F)(F)F)C4)cnc32)c1 (centres unmarked) [Compound B-84]	1.94	3.38	4.02	5.76	< 100 nM
O=C(Nc1cncc(-n2ccc3cc(C(=O)N4CCC(F)(F)CC4)cnc32)c1)C1CCC1 [Compound B-236]	1.63	3.57	6.46	8.32	< 100 nM
COC(=O)Nc1cncc(-n2ccc3cc(C(=O)N4CCCC(F)(F)C4)cnc32)c1 [Compound B-82]	2.7	5.52	5.36	4.19	< 100 nM
Cn1cc(C(=O)Nc2cncc(-n3ccc4cc(C(=O)N5CCC(F)(F)CC5)cnc43)c2)cn1 [Compound B-92]	–	2.91 and 2.33	4.01 and 3.89	3.56 and 3.92	< 100 nM
O=C(Nc1cncc(-n2ccc3cc(C(=O)N4CCC(F)(F)CC4)cnc32)c1)C1CCCC1 [Compound B-234]	0.70	4.01	4.06	3.42	< 100 nM
C[C@H]1CCCN(C(=O)c2cnc3c(ccn3-c3cnn(CC(F)(F)F)c3)c2)C1 [Compound B-100]	0.79	1.78	4.49	5.26	–
CCOC(=O)Nc1cncc(-n2ccc3cc([S+]([O-])C4CCCC4)cnc32)c1 (centres unmarked) [Compound B-316]	–	–	–	–	< 100 nM
CC(C)(C)Nc1nc(-c2cncc(-n3ccc4cc(C(=O)N5CCC(F)(F)CC5)cnc43)c2)no1 [Compound B-20, (1-(5-(5-(tert-butylamino)-1,2,4-oxadiazol-3-yl)pyridin-3-yl)-1H-pyrrolo[2,3-b]pyridin-5-yl)(4,4-difluoropiperidin-1-yl)methanone]	–	–	–	–	< 100 nM
O=C(O)c1ccc(-n2ccc3cc(C(=O)N4CC[C@@H](F)C4)cnc32)cc1 [Compound B-6]	–	–	–	–	< 100 nM
C[C@@H]1CCCN(C(=O)c2cnc3c(ccn3-c3ccc(C#N)cc3)c2)C1 [Compound B-9, (R)-4-(5-(3-methylpiperidine-1-carbonyl)-1H-pyrrolo12,3-b1 pyridin-1-yl)benzonitrile]	–	–	–	–	< 100 nM
CO[C@@H]1CCCN(C(=O)c2cnc3c(ccn3-c3ccc(-c4nnc[nH]4)c(F)c3)c2)C1 [Compound B-246]	–	–	–	–	< 100 nM
CC1CN(C(=O)c2cnc3c(ccn3-c3ccc(-c4nc(N)n[nH]4)nc3)c2)CCO1 (centres unmarked) [Compound B-49, (1-(6-(3-amino-1H-1,2,4-triazol-5-yl)pyridin-3-yl)-1H-pyrrolo [2,3-b]pyridin-5-yl)(2-methylmorpholino)methanone]	–	–	–	–	< 100 nM

Second part, the compound after the results:

PGE2 - HTRF over IL-β induction at 0.001 μM [1]	PGE2 - HTRF over IL-β induction at 0.01 μM [1]	PGE2 - HTRF over IL-β induction at 0.1 μM [1]	PGE2 - HTRF over IL-β induction at 1 μM [1]	IC50 [2]	Structure (SMILES)
0.90	0.81	0.86	2.8	–	O=C(c1cnc2c(ccn2-c2ccc(N3C(=O)CCC3=O)cc2)c1)N1CCC(F)(F)CC1 [Compound B-106]
1.57	2.98	3.46	3.26	–	C[C@H]1CCCN(C(=O)c2cnc3c(ccn3-c3ccc4nc(N(C)C)nn4c3)c2)C1 [Compound B-108]
1.73	1.31	2.12	3.51	–	O=C(c1cnc2c(ccn2-c2ccc(-n3cnnc3)cc2)c1)N1CCC(F)(F)CC1 [Compound B-107]
1.34	1.28	4.15	6.26	–	Cc1nc2ccc(-n3ccc4cc(C(=O)N5CCC(F)(F)CC5)cnc43)cn2n1 [Compound B-120]
1.01	1.2	2.87	3.06	–	O=C(c1cnc2c(ccn2-c2ccc(-c3nc[nH]n3)s2)c1)N1CCC(F)(F)CC1 [Compound B-119]
1.08	2.42	4.98	5.37	–	O=C(c1cnc2c(ccn2-c2ccc3nc(N4CCOCC4)nn3c2)c1)N1CCC(F)(F)CC1 [Compound B-97, (4,4-difluoropiperidin-1-yl)(1-(2-morpholino [1,2,4]triazolo [1,5-a]pyridin-6-yl)-1H-pyrrolo [2,3-b]pyridin-5-yl)methanone]
2.93	4.16	3.31	4.33	< 100 nM	O=C(c1cnc2c(ccn2-c2cccc(-c3nc[nH]n3)c2)c1)N1CCC(F)(F)CC1 [Compound B-36, (1-(3-(4H-1,2,4-triazol-3-yl)phenyl)-1H-pyrrolo[2,3-b]pyridin-5-yl)(4,4-difluoropiperidin-1-yl)methanone]
0.77	1.54	3.22	5.19	< 100 nM	CCOC(=O)Nc1cc(-n2ccc3cc(C(=O)N4CCC(F)(F)CC4)cnc32)cnc1C [Compound B-96]
1.15	1.34	5.1	6.3	–	Cc1cn2cc(-n3ccc4cc(C(=O)N5CCC(F)(F)CC5)cnc43)ccc2n1 [Compound B-103]
1.48	1.55	1	1.02	–	O=C(O)c1ccc(-n2ccc3cc(C(=O)N4CCC(F)(F)CC4)cnc32)s1 [Compound B-118]
–	–	–	–	< 100 nM	Cc1ccc(-c2nnc[nH]2)cc1-n1ccc2cc(C(=O)N3CCC(F)(F)CC3)cnc21 [Compound B-271]
–	–	–	–	< 100 nM	Cc1cc(-n2ccc3cc(C(=O)N4CCC(F)(F)CC4)cnc32)ccc1C(=O)O [Compound B-270]
